This is an account of results in EP2551257A1, “Co-crystals of agomelatine with co-crystal-formers” (Laboratorios del. Dr. Esteve, S.A., priority 2011, dated 2013).

A value given as a limit tells only on which side of the number the result lay.

A short description of data set [1]: Intrinsic Dissolution Rate (IDR) test, USP apparatus 2 (paddles). Type of data set: physicochemical. The conditions noted are these: for IDR: 37°C, 100 rpm, 2 hours, calculated from slope of straight line; for Ratio: IDR of co-crystal relative to agomelatine. An excerpt: The aim of this study was to measure intrinsic dissolution rate (IDR) of some crystalline forms of the present invention in order to compare them with the IDR of the agomelatine. Intrinsic dissolution rate is defined as the dissolution rate of pure substance under the condition of constant surface area.
Figures 20 and 21 show the results of intrinsic dissolution rate performed with co-crystals obtained in examples 4 and 5. The IDR behaviour of agomelatine and the co-crystal of agomelatine - gentisic acid (1:1), agomelatine - citric acid (1:1) from the present invention was tested in USP apparatus 2 (paddles) at 37°C and 100 rpm with 2 hours in a solution of 0,1 N HCl (figure 20) and 2 hours in a buffer solution at pH 6.8 (figure 21). The intrinsic dissolution rate was calculated from the slope of the straight line obtained.

For data set [2] the following is noted: cited from earlier work.
The subject of data set [3] is α, β adrenergic, histaminergic, cholinergic, dopaminergic and benzodiazepine receptors. The conditions noted are these: cited from earlier work.
Data set [4] deals with monoamine uptake. The conditions noted are these: cited from earlier work.

For the compound `COc1ccc2cccc(CCNC(C)=O)c2c1` [agomelatine, N-[2-(7-methoxynaphthalen-1-yl)ethyl]acetamide], the IDR was 0.0267 mg/cm^2·s in data set [1] (Media Buffer pH 6.8) and 0.0349 mg/cm^2·s in data set [1] (Media HCl 0.1M). For the same compound, the “solubility in various organic solvents” value in data set [2] (96% ethanol, methanol, methylene chloride, freely soluble) was over 100 mg/mL. Moreover, the “solubility in purified water” value in data set [2] (purified water, practically insoluble) is reported as < 0,1 mg/ml. Also, the affinity entry in data set [3] is reported as “no affinity”. In addition, in data set [4], the “effect on monoamine uptake” value is “no effect”.
For the compound `COc1ccc2cccc(CCNC(C)=O)c2c1` [agomelatine-citric acid (1:1) co-crystal], in data set [1] (Media Buffer pH 6.8), the Ratio stood at 1.76 and the IDR was 0.0470 mg/cm^2·s. In data set [1] (Media HCl 0.1M), the Ratio was 1.92 and the IDR is given as 0.0670 mg/cm^2·s.
Regarding `COc1ccc2cccc(CCNC(C)=O)c2c1` [agomelatine - gentisic acid (1:1) co-crystal], in data set [1] (Media Buffer pH 6.8), the Ratio is listed as 1.70 and the IDR was 0.0453 mg/cm^2·s. For the same compound, in data set [1] (Media HCl 0.1M), the Ratio was 1.28 and the IDR is on record as 0.0447 mg/cm^2·s.
